Assay results from paper PMC6325233, “A Novel Actin Binding Drug with In Vivo Efficacy” (Antimicrobial Agents and Chemotherapy, 2018).
“Also recorded” adds a separate entry of the source.

How the values were obtained:
Format in all cases: cell-based
S. pombe = test: FM-464 uptake (endocytosis) assay; settings: 0.5 μg/ml (0.5× MIC) and 1 μg/ml (1× MIC), 30 min, 30°C
Procedure: The hyphal induction assay was performed as previously reported with minor modifications ([58]). Candida albicans strain ATCC 66027 was grown in yeast extract-peptone-dextrose (YPD) medium at 30°C for 48 h to reach saturation with an OD600 of 17 to 19. Cells were diluted into fresh Spider medium (1% nutrient broth, 1% mannitol, 0.2% K2HPO4) to obtain an OD600 of 0.05 (∼0.5 × 10^6 to 1 × 10^6 cells/ml) and incubated at 37°C with shaking to induce hyphal formation. Immediately prior to the 37°C incubation, occidiofungin (1 µg/ml; 0.5× MIC) or an equal volume of DMSO was added to the cultures. Aliquots were removed at 0-, 1-, 2-, 4-, and 6-h time points and fixed in 3.7% formaldehyde for later analysis of cell morphology by light microscopy. More than 200 cells were examined for each time point, and cells were scored as having either a yeast or filamentous form, with cells showing any outgrowth considered filamentous. DNA segregation assays were performed using a mid-log culture of S. cerevisiae (BY4743, diploid) and C. albicans (ATCC 66027). The cultures were diluted in fresh YPD medium to obtain OD600s of 0.095 (∼1 × 10^6 to 1.5 × 10^6 cells/ml) and 0.05 (0.5 × 10^6 to 0.8 × 10^6 cells/ml), respectively. […] Images were viewed using a Nikon 50i fluorescence microscope with a 100× oil immersion objective and DAPI filter. Cells were scored on the basis of bud morphology and DNA location. […]

[1] = system: Candida albicans strain ATCC 66027; test: Hyphal induction (morphology switching) assay; settings: for % hyphae / % yeast: 1 µg/ml
Procedure: The hyphal induction assay was performed as previously reported with minor modifications ([58]). Candida albicans strain ATCC 66027 was grown in yeast extract-peptone-dextrose (YPD) medium at 30°C for 48 h to reach saturation with an OD600 of 17 to 19. Cells were diluted into fresh Spider medium (1% nutrient broth, 1% mannitol, 0.2% K2HPO4) to obtain an OD600 of 0.05 (∼0.5 × 10^6 to 1 × 10^6 cells/ml) and incubated at 37°C with shaking to induce hyphal formation. Immediately prior to the 37°C incubation, occidiofungin (1 µg/ml; 0.5× MIC) or an equal volume of DMSO was added to the cultures. Aliquots were removed at 0-, 1-, 2-, 4-, and 6-h time points and fixed in 3.7% formaldehyde for later analysis of cell morphology by light microscopy. More than 200 cells were examined for each time point, and cells were scored as having either a yeast or filamentous form, with cells showing any outgrowth considered filamentous. DNA segregation assays were performed using a mid-log culture of S. cerevisiae (BY4743, diploid) and C. albicans (ATCC 66027). The cultures were diluted in fresh YPD medium to obtain OD600s of 0.095 (∼1 × 10^6 to 1.5 × 10^6 cells/ml) and 0.05 (0.5 × 10^6 to 0.8 × 10^6 cells/ml), respectively. A blank vehicle control (DMSO) or occidiofungin (1 µg/ml; 0.5× MIC) was added, and the cultures were placed at 30°C with shaking. Samples were removed at 0.5, 1, and 2 h, and the cells fixed by adding formaldehyde (3.7%). The cells were washed in phosphate-buffered saline (PBS) and permeabilized by adding an equivalent volume of PBS containing 0.2% Triton X-100 for 30 min at room temperature. The cells were washed thrice in PBS, added to concanavalin A-treated glass slides, and overlaid with Vectashield plus DAPI (4′,6-diamidino-2-phenylindole). Images were viewed using a Nikon 50i fluorescence microscope with a 100× oil immersion objective and DAPI filter. Cells were scored on the basis of bud morphology and DNA location. One-way analyses of variance (ANOVAs) with post hoc Tukey’s honestly significant difference (HSD) testing were used to determine statistically significant differences in the distributions between treated and untreated cells. In addition, FM-464 uptake assays were used to observe endocytosis. Three 1-ml aliquots of S. pombe (OD600 of 0.6 to 0.8) were treated with 1 μl DMSO, 0.5 μg/ml (0.5× MIC), or 1 μg/ml (1× MIC) of native occidiofungin for 30 min at 30°C. The cells were washed thrice with PBS and resuspended in YPD medium containing […] FM-464 (Thermo Fisher Scientific). The cells were incubated for 60 min at 30°C, followed by two washes in PBS before visualizing on an Olympus FV1000 confocal microscope with a 40×/0.9 dry objective. Lastly, actin polymerization and depolymerization assays were performed using the Actin polymerization biochem kit (catalog number BK003; Cytoskeleton, Inc.) according to the manufacturer’s instructions.

S. cerevisiae Δbem2 = test: MIC against deletion mutant; settings: Rho-GAP for the CWI pathway
Procedure: (§1) Occidiofungin was purified from a liquid culture of Burkholderia contaminans MS14 as previously described ([21]). MIC susceptibility testing was performed according to the CLSI M27-A3 and M38-A2 standards for the susceptibility testing of yeasts and filamentous fungi, respectively. S. cerevisiae deletion mutants were obtained from the commercially available BY4741 deletion library (Thermo Scientific).

S. cerevisiae Δcap2 = test: MIC against deletion mutant; settings: Barbed-end actin capping protein
Procedure: as §1

S. cerevisiae Δrdi1 = test: MIC against deletion mutant; settings: Rho GDP-inhibitor
Procedure: as §1

S. cerevisiae Δmyo5 = test: MIC against deletion mutant; settings: Actin based motor activity, Type I motor
Procedure: as §1

S. cerevisiae Δscp1 = test: MIC against deletion mutant; settings: Actin cross linker
Procedure: as §1

S. cerevisiae Δtus1 = test: MIC against deletion mutant; settings: Rho1p GEF
Procedure: as §1

S. cerevisiae Δsac7 = test: MIC against deletion mutant; settings: Rho1-GAP
Procedure: as §1

S. cerevisiae Δbni1 = test: MIC against deletion mutant; settings: Actin nucleation, Formin
Procedure: as §1

S. cerevisiae Δarc18 = test: MIC against deletion mutant; settings: ARP2/3 subunit
Procedure: as §1

S. cerevisiae Δrom2 = test: MIC against deletion mutant; settings: Rho1/2-GEF
Procedure: as §1

S. cerevisiae Δtpm2 = test: MIC against deletion mutant; settings: Actin filament binding, Tropomyosin
Procedure: as §1

S. cerevisiae Δtpm1 = test: MIC against deletion mutant
Procedure: as §1

S. cerevisiae Δabp1 = test: MIC against deletion mutant; settings: ARP2/3 activator
Procedure: as §1

S. cerevisiae Δbnr1 = test: MIC against deletion mutant; settings: Actin nucleation, Formin
Procedure: as §1

S. cerevisiae Δmyo4 = test: MIC against deletion mutant; settings: Actin based motor activity, Type V motor
Procedure: as §1

S. cerevisiae Δrgl1 = test: MIC against deletion mutant; settings: Tus1p cofactor
Procedure: as §1

[2] = T=1hr, replicate 1, untreated 51.7/48.3
[3] = T=1hr, replicate 2, untreated 72.7/27.3
[4] = T=1hr, replicate 3, untreated 43.6/56.4
[5] = T=2hr, replicate 1, untreated 23.4/76.6
[6] = T=2hr, replicate 2, untreated 15.6/84.4
[7] = T=2hr, replicate 3, untreated 14.2/85.8
[8] = T=4hr, replicate 1, untreated 7.1/92.9
[9] = T=4hr, replicate 2, untreated 17.4/82.6
[10] = T=4hr, replicate 3, untreated 13.2/86.8
[11] = T=6hr, replicate 2, untreated 52.2/47.8
[12] = T=6hr, replicate 3, untreated 21.1/78.9

occidiofungin
effect on endocytosis (FM-464-stained vesicles) (S. pombe): concentration-dependent reductions in stained endocytic vesicles; also recorded: decreased in a dose-dependent fashion | % hyphae ([1]; T=0hr, replicate 1): 0% | % yeast ([1]; T=0hr, replicate 1): 100% | % hyphae ([1]; T=0hr, replicate 2): 0% | % yeast ([1]; T=0hr, replicate 2): 100% | % hyphae ([1]; T=0hr, replicate 3): 0% | % yeast ([1]; T=0hr, replicate 3): 100% | % hyphae [1, 2]: 0% | % yeast [1, 2]: 100% | % hyphae [1, 3]: 0% | % yeast [1, 3]: 100% | % hyphae [1, 4]: 0% | % yeast [1, 4]: 100% | % hyphae [1, 5]: 0% | % yeast [1, 5]: 100% | % hyphae [1, 6]: 0% | % yeast [1, 6]: 100% | % hyphae [1, 7]: 0% | % yeast [1, 7]: 100% | % hyphae [1, 8]: 0.5% | % yeast [1, 8]: 99.5% | % hyphae [1, 9]: 0% | % yeast [1, 9]: 100% | % hyphae [1, 10]: 0.2% | % yeast [1, 10]: 99.8% | % hyphae [1, 11]: 0% | % yeast [1, 11]: 100% | % hyphae [1, 12]: 0% | % yeast [1, 12]: 100% | effect on hyphal formation ([1]; subinhibitory concentration (1 µg/ml; 0.5× MIC)): blocked hyphal formation | MIC (S. cerevisiae Δbem2): 0.25 µg/mL | MIC (S. cerevisiae Δcap2): 0.25 µg/mL | MIC (S. cerevisiae Δrdi1): 0.25 µg/mL | MIC (S. cerevisiae Δmyo5): 0.25 µg/mL | MIC (S. cerevisiae Δscp1): 0.25 µg/mL | MIC (S. cerevisiae Δtus1): 0.25 µg/mL | MIC (S. cerevisiae Δsac7): 0.25 µg/mL | MIC (S. cerevisiae Δbni1): 0.25 µg/mL | MIC (S. cerevisiae Δarc18): 0.25 µg/mL | MIC (S. cerevisiae Δrom2): 0.25 µg/mL | MIC (S. cerevisiae Δtpm2): 0.25 µg/mL | MIC (S. cerevisiae Δtpm1; Actin filament binding, Tropomyosin): 1.0 µg/mL | resistance to occidiofungin of Δtpm1 mutant (S. cerevisiae Δtpm1; vs parent, MIC): 4 -fold | MIC (S. cerevisiae Δabp1): 0.25 µg/mL | MIC (S. cerevisiae Δbnr1): 0.25 µg/mL | MIC (S. cerevisiae Δmyo4): 0.25 µg/mL | MIC (S. cerevisiae Δrgl1): 0.25 µg/mL
